This note sets out measurements from patent US5242945A, “Tetronic and thiotetronic acid derivatives as phospholipase A2 inhibitors” (American Home Products Corporation, priority 1991, dated 1993).

pIC50: −log10 of the molar value. Like-named read-outs stand apart in the source and are kept apart here.

The test system of one assay is cyclooxygenase (PGE2). Put plainly: resident murine peritoneal macrophage assay, PGE2. The class given is cell-based, mouse (Swiss Webster). The conditions noted are these: for inhibition at 0.5 µM / inhibition at 1 µM: read-out: PGE2 zymosan % Inhibition. The method, then: (§1) The ability of the compounds of the invention to act as inhibitors of the enzymes 5-lipoxygenase and cyclooxygenase is measured in the resident murine peritoneal macrophage assay.
Resident peritoneal macrophages are collected from female Swiss Webster mice (49 days old, 20-25 gms, Buckshire) by lavaging with 7-8 ml Hanks Balanced Salt Solution (HBSS) without Ca^++ and Mg^++ (GIBCO). The lavage fluid from several mice is pooled and centrifuged at 4° C. for 10 minutes at 400 xg. The cell pellet is resuspended in Medium 199 (GIBCO) with HEPES buffer containing 100 μg/ml gentamicin. Two ml of the cell suspension (4×10^6 cells) are then plated on 35 mm culture dishes (Nunc).
A macrophage monolayer is established after a 1-1.5 hour incubation of the cells at 37° C. in an atmosphere of […] and 5% CO2. The monolayers are washed 2× with 2 ml HBDSS, containing Ca^++ and Mg^++ after which 2 ml Medium 199 supplemented with 10% freshly thawed heat-inactivated fetal bovine serum and 100 μg/ml gentamicin is added for an overnight incubation.
(§2) Residual serum and cellular debris are removed from the monolayers by washing 3× with 2 ml HBSS containing Ca^++ and Mg^++. Macrophages are preincubated for 5 minutes with 1 ml serum-free M199 containing 10 μl dimethyl sulfoxide (DMSO) vehicle or test compound prior to cell activation with zymosan ([…]) or arachidonic acid (AA) (2 μM). After 2 hours, the supernatants are removed and either assayed for LTC4 and PGE2 by radioimmunoassay (RIA) directly or stored at -20° C. In all cases, results are expressed as ng metabolite/4×10^6 cells.
(§3) Raw data (dpm) may be stored directly onto an "Autostart" tape using the HP85 in room C-096. The raw data are converted to ng metabolite/4-10^6cells using the standard curve by a "RIANAL" program (HP85) or a "NONLIN" program (HP9816). Results are then expressed as percent inhibition of zymosan induced, leukotriene or prostaglandin synthesis (control) using the equation: [formula]

Another assay has as its system 5-lipoxygenase (LTC4). The experiment in a line: resident murine peritoneal macrophage assay, LTC4. The format is cell-based, mouse (Swiss Webster). Here is the method: as §1
Resident peritoneal macrophages are collected from female Swiss Webster mice (49 days old, 20-25 gms, Buckshire) by lavaging with 7-8 ml Hanks Balanced Salt Solution (HBSS) without Ca^++ and Mg^++ (GIBCO). The lavage fluid from several mice is pooled and centrifuged at 4° C. for 10 minutes at 400 xg.
as §2, §3

The next assay addresses T1, human platelet PLA2 (Homo sapiens, UniProt P14555).
T1 construct: platelet acid extract PLA2; from tissue; host or cells: human platelets, semipurified acid extract
T1 sequence (P14555 21-144): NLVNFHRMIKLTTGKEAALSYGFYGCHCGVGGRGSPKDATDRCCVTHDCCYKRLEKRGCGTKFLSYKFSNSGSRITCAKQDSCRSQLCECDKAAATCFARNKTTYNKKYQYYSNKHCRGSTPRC
The experiment in a line: in vitro isolated phospholipase A2 assay, human platelet PLA2. The format is biochemical. The conditions noted are these: at 10 μM; + values given without explanation; read-out: % Inhibition HP (human platelet). The method, then: (§4) The compounds of the invention are tested in an in vitro isolated phospholipase A2 assay to determine the ability of the test compounds to inhibit the release of arachidonic acid from an arachidonic acid-containing substrate by the action of phospholipase A2 enzyme from human and non-human sources.
(§5) Into a 15 mL polypropylene tube are added the following:
(§6) ^3 H-AA E. coli substrate^1
(§7) Tris-HCl (0.5 M) pH 7.5^3
(§8) PLA2 25 Volume yielding 12%
(§9) 100 hydrolysis in 10 min.
(§10) *pre-incubate at room temperature 30 min prior to substrate addition.
(§11) ^6 Two human PLA2 enzymes are used: a) Semipurified human
(§12) platelet acid extract PLA2 (in 10 mM sodium acetate buffer, pH 4.5).
(§13) Remove protein precipitate by centrifugation at about 2200 rpm for 10
(§14) minutes. b) Purified human synovial fluid.
(§15) Incubate the 100 μL reaction mixture for 10 minutes at 37° C. in a shaking water bath. The reaction is terminated by the addition of 2 mL tetrahydrofuran, followed by vortexing. NH2 columns (100 μg/mL--Analytichem International) are conditioned with 0.5 mL tetrahydrofuran followed by 0.5 mL tetrahydrofuran/water (2 mL:0.1 mL, v/v).
(§16) The sample is loaded onto the columns and slowly drawn through them. The hydrolyzed arachidonic acid retained in the columns is eluted therefrom with 1 mL tetrahydrofuran/glacial acetic acid (2%). The arachidonic acid is transferred to scintillation vials and quantitated by β-counting analysis. A "total counts" sample is prepared by pipetting 25 μL ^3 H-arachidonate E. coli directly into a scintillation vial to which is added 1 mL tetrahydrofuran. 10 mL aquasol (scintillation cocktail) is added to all samples.

Assay [1] has as its target T2, human synovial fluid PLA2 (Homo sapiens, UniProt P14555).
T2 construct: Purified human synovial fluid; from tissue; host or cells: human synovial fluid
T2 sequence (P14555 21-144): T1 sequence (P14555 21-144)
Put plainly: in vitro isolated phospholipase A2 assay, human synovial fluid PLA2. The class given is biochemical. The conditions noted are these: at 10 μM; + values given without explanation; read-out: % Inhibition HSF (human synovial fluid). The method, then:
as §4, §5, §6, §7, §8, §9, §10, §11, §12, §13, §14, §15, §16

A further assay relates to TPA-induced ear edema. The experiment in a line: 12-o-tetradecanoylphorbol acetate (TPA)-induced murine ear edema assay. The format is in vivo, mouse (Swiss Webster). The conditions noted are these: TPA; topical, 200 μg, vehicle acetone. Here is the method:
The ability of the compounds of the invention to inhibit inflammatory responses is examined in the in vivo arachidonic acid (AA)/12-o-tetradecanoylphorbol acetate (TPA)-induced murine ear edema assay.
Swiss Webster female mice (Buckshire), approximately 8 weeks old are placed into plastic boxes in groups of six. Eight groups of mice receive AA topically on the right ear, and another 8 groups receive TPA topically on the right ear. AA and TPA are dissolved in acetone at concentrations of 100 mg/ml and 100 μg/ml respectively. The phlogistics are applied to the right ear by the means of an automatic pipet. Volumes of 10 μl are applied to the inner and outer surfaces of the ear. Each mouse receives either 2 mg/ear AA or 2 μg/ear TPA. The left ear (control) receives acetone delivered in the same manner. Topical and subcutaneous dosing regimens are as follows 1) drugs are given 30 minutes prior to AA treatment and 2) drugs are given 30 minutes after treatment with TPA.
Measurements are taken with Oditest calipers, 0-10 mm with 0.01 graduations. The right and left ears are measured after 1 hr AA-induced inflammation and 4 hours after TPA-induced inflammation.
The difference between right and left ear thickness is calculated and the significance is determined by a one way analysis of variance with Dunnett's comparisons to control (P=0.05). Drug effects are expressed as a percent change from control values: [formula]

Setting [2] is: Mus musculus, Peritoneal macrophage, zymosan stimulation.
Setting [3] is: zymosan stimulation, dose not given.
Where [4] appears, read: Mus musculus, Peritoneal macrophage, zymosan stimulation, 0.2 μM.

As to `CC(Cc1ccc(O)c(O)c1)C(C)Cc1ccc(O)c(O)c1` (centres unmarked) [NDGA, reference compound], the pIC50 in the assay with cyclooxygenase (PGE2) (Mus musculus, Peritoneal macrophage, reference compounds, 95% confidence limits on next line, read-out: IC50 PGE2) was 5.67; with 5-lipoxygenase (LTC4) (Mus musculus, Peritoneal macrophage, reference compounds, 95% confidence limits on next line, read-out: IC50 LTC4), […].

For `O=C(CCCCCCCCCc1ccc(Cl)cc1)C1=C(O)COC1=O` [Example 41, 4-Hydroxy-3-[10-(4-chlorophenyl)-1-oxodecyl]-2(5H)-furanone], the inhibition at 10 µM on human platelet PLA2 is 12%; in assay [1], 13%. For the same compound, the inhibition at 0.1 µM stood at 29% in the assay on cyclooxygenase (PGE2) (setting [2]) and 61% in the assay on 5-lipoxygenase (LTC4) (setting [2]). In addition, the inhibition at 0.5 µM in the assay with cyclooxygenase (PGE2) (setting [2]) was 97%; with 5-lipoxygenase (LTC4) (setting [2]) it was 90%.

Turning to `CCCC[C@@H]1C[C@@H]1CCCCCCCC(=O)C1=C(O)COC1=O` (relative stereo) [Example 54, 4-Hydroxy-3-[(Z)-8-(2-butylcyclopropyl)-1-oxooctyl]-2(5H)-furanone], the inhibition at 0.1 µM was 49.5% with cyclooxygenase (PGE2) (setting [2]) and 59.3% with 5-lipoxygenase (LTC4) (setting [2]).

Regarding `CCCCCCCCCCC[C@@H]1C[C@@H]1CCCCC(=O)C1=C(O)COC1=O` (relative stereo) [Example 55], in the assay on cyclooxygenase (PGE2) (setting [2]), the inhibition at 0.1 µM was found to be 39.2% and the inhibition at 0.5 µM came to 74.3%. Besides, in the assay with 5-lipoxygenase (LTC4) (setting [2]), the inhibition at 0.1 µM is 80.3% and the inhibition at 0.5 µM came to 64.2%.

For `CCCCCCCC/C=C\CCCCCCCCNC(=O)OC(CCC(=O)C1=C(O)COC1=O)COC/C=C(\C)CCC=C(C)C` (centres unmarked) [Example 40], the figures for the inhibition at 10 µM (at human platelet PLA2; in assay [1]) were 96.5% and 91%, respectively. Besides, the pIC50 in the assay with cyclooxygenase (PGE2) (Mus musculus, Peritoneal macrophage, zymosan stimulation, read-out: PGE2 zymosan IC50) was 6.10; with 5-lipoxygenase (LTC4) (Mus musculus, Peritoneal macrophage, zymosan stimulation, read-out: LTC4 zymosan IC50), 6.10. The “PGE2 zymosan % Inhibition” value with cyclooxygenase (PGE2) (setting [3]) stood at 37%. Also, the “LTC4 zymosan % Inhibition” value in the assay with 5-lipoxygenase (LTC4) (setting [3]) came to 87%.

Regarding `O=C(CCCCCCCCCc1ccc(Br)cc1)C1=C(O)COC1=O` [Example 44, 4-Hydroxy-3-[10-(4-bromophenyl)-1-oxodecyl]-2(5H)-furanone], the inhibition at 10 µM was 16.1% at human platelet PLA2 and 37% in assay [1]. For the same compound, the inhibition at 0.1 µM is -20% in the assay on cyclooxygenase (PGE2) (setting [2]) and 58% in the assay on 5-lipoxygenase (LTC4) (setting [2]). Also, the inhibition at 0.5 µM in the assay with cyclooxygenase (PGE2) (setting [2]) came to 88%; in the assay with 5-lipoxygenase (LTC4) (setting [2]), 94%.

As to `CCCCCCCC[C@@H]1C[C@@H]1CCCCCCCC(=O)C1=C(O)COC1=O` (relative stereo) [Example 19, (Z)-4-Hydroxy-3-(1-oxo-8-(2'-octylcyclopropyl)octanyl)-2(5H)-furanone], the inhibition at 10 µM on human platelet PLA2 turned out to be 83%; in assay [1] it was 88%. Besides, the inhibition at 0.5 µM in the assay on cyclooxygenase (PGE2) (setting [2]) amounted to 68.4%; in the assay on 5-lipoxygenase (LTC4) (setting [2]) it was 37.5%.

On to `CCCCCCNC(=O)OCC(CCC(=O)C1=C(O)COC1=O)OC(=O)NCCCCCC` (centres unmarked) [Example 30, Hexylcarbamic acid 5-(2,5-dihydro-4-hydroxy-2-oxo-3-furanyl)-5-oxo-1,2-pentanediyl ester], for which the figures for the inhibition at 10 µM (at human platelet PLA2; in assay [1]) were 37.4% and 21%, respectively. Further, the inhibition at 1 µM in the assay with cyclooxygenase (PGE2) (setting [2]) was found to be 45.8%; in the assay on 5-lipoxygenase (LTC4) (setting [2]), 41.5%.

Take `CC(C)(C)c1ccc(CCCCCCCCCC(=O)C2=C(O)COC2=O)cc1` [Example 43, 4-Hydroxy-3-[10-[4-(1,1-dimethylethyl)phenyl]1-oxodecyl]-2(5H)-furanone]: the inhibition at 10 µM was 29.7% on human platelet PLA2 and 44.4% in assay [1]. Moreover, the inhibition at 0.1 µM with cyclooxygenase (PGE2) (setting [2]) worked out at 54%; with 5-lipoxygenase (LTC4) (setting [2]), 71%. In addition, the inhibition at 0.5 µM in the assay with cyclooxygenase (PGE2) (setting [2]) is 92%; in the assay with 5-lipoxygenase (LTC4) (setting [2]), 96%.

On to `O=C(CCCCCCCCCc1ccc(C(F)(F)F)cc1)C1=C(O)COC1=O` [Example 45, 4-Hydroxy-3[10-(4-trifluoromethyl)phenyl]-2(5H)-furanone], for which the inhibition at 10 µM on human platelet PLA2 was 63%; in assay [1], 55.6%. Further, the inhibition at 0.2 µM turned out to be 45% in the assay with cyclooxygenase (PGE2) (setting [4]) and 34.5% in the assay with 5-lipoxygenase (LTC4) (setting [4]).

`O=C(CCCCOc1ccc(Cl)cc1)C1=C(O)CSC1=O` [Example 49, 4-Hydroxy-3-[5-(4-chlorophenoxy)-1-oxopentyl]-2(5H)-thiophenone]: the figures for the inhibition at 10 µM (at human platelet PLA2; in assay [1]) were 1.7% and 6.7%, respectively. The inhibition at 0.5 µM is -11.8% with cyclooxygenase (PGE2) (setting [2]) and -19.7% in the assay on 5-lipoxygenase (LTC4) (setting [2]).

Turning to `O=C(CCCCCCCCCc1ccc(Cl)c(Cl)c1)C1=C(O)COC1=O` [Example 42, 4-Hydroxy-3-[10-(3,4-dichlorophenyl)-1-oxodecyl]-2(5H)-furanone], the inhibition at 10 µM at human platelet PLA2 came to 6.6%; in assay [1] it was 22%. The inhibition at 0.1 µM with cyclooxygenase (PGE2) (setting [2]) is -8%; with 5-lipoxygenase (LTC4) (setting [2]), 58%. Moreover, the values for the inhibition at 0.5 µM with cyclooxygenase (PGE2) (setting [2]) and with 5-lipoxygenase (LTC4) (setting [2]) were 97% and 70%, respectively.

Regarding `CCCCCCCC/C=C\CCCCCCCC(=O)OCCCC(=O)C1=C(O)COC1=O` [Example 38, (Z)-9-Octadecanoic acid 4-(2,5-dihydro-4-hydroxy-2-oxo-3-furanyl)-4-oxobutanoic ester], the inhibition at 10 µM at human platelet PLA2 was 80.9%; in assay [1], 18.8%. The inhibition at 1 µM is 75.8% in the assay with cyclooxygenase (PGE2) (setting [2]) and 46.4% in the assay with 5-lipoxygenase (LTC4) (setting [2]). Further, the “Topical % Inhibition at 200 μg” value in the assay on TPA-induced ear edema is 23%.

Broadly, the pIC50 is the negative decadic logarithm of the IC50, by convention in mol/L. A word on the inhibition: it is the drop in the measured response relative to a control, in per cent.
